# Assay results reported in patent US12377103B2, “Use of bromodomain-containing protein 9 inhibitors to treat and/or prevent uterine leiomyosarcoma” (The University of Chicago, priority 2022, dated 2025).
# Key:
# endometrial cancer cells = settings: cited from earlier work
# SK-UT-1 cells [1] = test: RNA-sequencing of TP-472 vs control treated SK-UT-1 cells; assay type: cell-based, human
# Experimental: To determine the mechanism underlying the inhibitory effect of BRD9 inhibition on the uLMS, the SK-UT-1 cells were treated with iBRD9 TP-472 (5 μM) for 48 h. RNA was isolated using Trizol. RNA quality and quantity were assessed using the Agilent bio-analyzer. Strand-specific RNA-SEQ libraries were prepared using a TruSEQ total RNA-SEQ library protocol (Illumina provided). Library quality and quantity were assessed using the Agilent bio-analyzer and libraries were sequenced using an Illumina NovaSEQ6000 (illumine provided reagents and protocols).
# A variety of R packages was used for this analysis. All graphics and data wrangling were handled using the tidyverse suite of packages. All packages used are available from the Comprehensive R Archive Network (CRAN), the Bioconductor project, or Github. The reads were mapped to the human reference transcriptome using STAR, version 2.6.1d (GitHub, Inc., San Francisco, CA, USA). The quality of raw reads, as well as the results of STAR mapping, are generated using fastqc and multiqc. Raw reads were mapped to the human reference transcriptome using Salmon, version 1.4.0. After reading mapping with Salmon, the tximport software package (Bioconductor project, accessed on 27 Oct. 2021) was used to read Salmon outputs into the R environment. Annotation data from Gencode V34 was used to summarize data from transcript-level to gene-level.
# For Parsimonious gene correlation network analysis (PGCNA), normalized matrix of DEGs (Adjusted p-Values<0.05 and […]; n=3583) and the top 80% of the most variance genes across samples (n=10,848) were used to network construction. The matrix was used to calculate Spearman rank correlations for all gene pairs using the Python PGCNA2 package. For each gene (row) in a correlation matrix, only the three most correlated edges per gene were retained. The correlation matrices were clustered 100 times using the fast unfolding of communities in a large network's algorithm and the best (judged by modularity score) were used for downstream analysis. Gephi package with the ForceAt-1as2 layout method was used to visualize the network. Enrichment analyses were performed using the Enrichr web server (Ma′ayan lab at Icahn School of Medicine at Mount Sinai, accessed on 10 Jan. 2022) through EnrichR package in R software. Top biological process GO terms with the false discovery rate (FDR)[…] were analyzed using REVIGO to summarize and find a representative subset of the terms. STRING database (accessed on 27 Apr. 2022), which is the online search tool to protein-protein network (PPI) construction, was used to reconstruct each modules network (A combined score≥0.4 of PPI pairs was considered significant), then the Cytoscape software was employed to analyze the obtained networks. In addition, the Venn diagram online tool provided by VIB and Ghent University (accessed on 27 Apr. 2022) was used to investigate the intersection of DEGs and selected modules.
# To determine the mechanistic action of TP-472 inhibition on uLMS cells, RNA-sequencing analysis was performed in control and TP-472 treated cells (n=4 each).
# SK-UT-1 cells [2] = test: Proliferation assay (trypan blue exclusion), SK-UT-1; assay type: cell-based, human; settings: 1-25 μM, 48 h, FIG. 4C
# Experimental: (§1) The leiomyosarcoma (uLMS) cell line (SK-UT1, ATCC® HTB-114TM) (ATCC, Manassas, VA, USA) was cultured and maintained in ATCC-formulated Eagle's Minimum Essential Medium with 10% of fetal bovine serum. In addition, the uterine sarcoma cell line (MES-SA) (ATCC, Manassas, VA, USA) was cultured and maintained in McCoy's 5A medium. The immortalized human leiomyoma cell line (HuLM) and immortalized human uterine smooth muscle (UTSM) cells were a generous gift from Professor Darlene Dixon. The HuLM and UTSM cell lines were cultured and maintained in phenol red-free, Dulbecco's Modified Eagle Medium: Nutrient Mixture F-12. These cell lines, covering the spectrum from normal cell line (UTSM), benign uterine tumor cell line (HuLM), and uterine malignant cell lines (uLMS), were used to better understand the tumor progression linking to the BRD9 dysregulation in uLMS. BRD9 inhibitor (iBRD9) TP-472 was purchased from Tocris (Cat #6000, Minneapolis, MN, USA).
# (§2) Cell proliferation was measured using trypan blue exclusion assay; 4 104 cells per well were seeded into 12-well tissue culture plates, treated with the iBRD9 (TP-472) at a dose range from 1-25 μM for 48 h. This assay was performed three times in triplicate.
# (§3) Trypan blue exclusion assay was performed in SK-UT-1 and MES-SA cell lines treated for 48 h with TP-472 at dose ranges from 1-25 μM.
# BCL-2 = test: Western blot of BCL-2 protein levels in SK-UT-1 cells; assay type: cell-based, human; settings: dose-dependent manner, FIG. 4E-4F
# Experimental: Cells were collected and lysed in RIPA lysis buffer with protease and phosphatase inhibitor cocktail (Thermo Scientific, Waltham, MA, USA), the protein was quantified using the Bradford method (Bio-Rad Protein Assay kit). The antigen—antibody complex was detected with Trident Femto Western HRP substrate (Gene-Tex, Irvine, CA, USA). Specific protein bands were visualized using ChemiDoc XRS ♭ molecular imager (Bio-Rad, Hercules, CA, USA).
# as §3
# melanoma = settings: by suppressing ECM-mediated oncogenic signaling and inducing apoptosis; cited from earlier work
# BRD9 = BRD9 (Homo sapiens, UniProt Q9H8M2); settings: cited from earlier work
# Chain of BRD9 (Q9H8M2 whole entry): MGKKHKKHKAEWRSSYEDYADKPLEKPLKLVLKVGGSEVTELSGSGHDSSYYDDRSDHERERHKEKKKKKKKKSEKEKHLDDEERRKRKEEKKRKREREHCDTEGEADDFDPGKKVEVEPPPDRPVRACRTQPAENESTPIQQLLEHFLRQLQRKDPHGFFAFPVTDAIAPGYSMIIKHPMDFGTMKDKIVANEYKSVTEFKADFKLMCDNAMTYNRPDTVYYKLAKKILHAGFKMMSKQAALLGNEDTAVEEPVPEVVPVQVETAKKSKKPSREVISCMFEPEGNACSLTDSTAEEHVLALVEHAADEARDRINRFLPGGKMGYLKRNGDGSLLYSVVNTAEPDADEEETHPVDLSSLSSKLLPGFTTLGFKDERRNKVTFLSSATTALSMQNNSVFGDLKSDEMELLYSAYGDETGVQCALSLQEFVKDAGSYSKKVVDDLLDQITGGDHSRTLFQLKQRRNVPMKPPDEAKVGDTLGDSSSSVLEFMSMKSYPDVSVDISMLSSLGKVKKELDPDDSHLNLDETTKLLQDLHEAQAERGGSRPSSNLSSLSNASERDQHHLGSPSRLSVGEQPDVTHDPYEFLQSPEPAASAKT
# MES-SA cells = test: Proliferation assay (trypan blue exclusion), MES-SA; assay type: cell-based, human; settings: 1-25 μM, 48 h, FIG. 4D
# Experimental: as §1, §2, §3
# SK-UT-1 cells [3] = test: qRT-PCR validation of cell cycle and apoptosis genes; assay type: cell-based, human; settings: iBRD9 treatment
# Experimental: Total RNA was isolated using Trizol reagent (Invitrogen, Carlsbad, CA, USA). The concentration of total RNA was determined using NanoDrop (Thermo Scientific, Waltham, MA, USA). One microgram of total RNA from each sample was reverse transcribed to complementary DNA (cDNA) using the High-Capacity cDNA Transcription Kit (Thermo Scientific, Waltham, MA, USA). Quantitative real-time polymerase chain reaction (qRT-PCR) was performed to determine the messenger RNA (mRNA) expression of several genes listed with their primer sequences in Table 2. The real-time PCR reactions were performed using CFX96 PCR instrument using SYBR Green Supermix (Bio-Rad, Hercules, CA, USA). 18S was used as an internal control. The results are presented as relative gene expression using CFX Maestro™. The assay was performed three times in triplicate.
# Quantitative real-time PCR was performed to determine the mRNA expression of genes as described previously. An equal amount of cDNA from each sample was added to the Master mix containing appropriate primer sets and SYBR green supermix (Bio-Rad) in a 20 μL reaction volume. All samples were analyzed in triplicates. Real-time PCR analyses were performed using a Bio-Rad CFX96. Cycling conditions included denaturation at 95° C. for 2 min followed by 40 cycles of 95° C. for 5 s and 60° C. for 30 seconds then 65° C. for 5 seconds. […]
# macrophages = settings: cited from earlier work
# ovarian cancer = settings: associated with cell cycle arrest, apoptosis induction, metabolic alterations; cited from earlier work
# SW48 colon cancer cells = settings: cited from earlier work
# CECR2 BRD = CECR2 BRD (Homo sapiens, UniProt Q9BXF3); settings: within cells; cited from earlier work
# Chain of CECR2 BRD (Q9BXF3 434-538 limits assumed): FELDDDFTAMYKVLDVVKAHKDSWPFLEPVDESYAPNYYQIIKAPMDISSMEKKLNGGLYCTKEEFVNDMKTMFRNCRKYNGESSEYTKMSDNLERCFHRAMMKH
# [4] = SK-UT-1 cells, 5 μM, 48 h, n=4 each
# [5] = module I, SK-UT-1, TP-472 5 μM 48 h vs control
# [6] = module III, SK-UT-1, TP-472 5 μM 48 h vs control
# [7] = module VI, SK-UT-1, TP-472 5 μM 48 h vs control
# [8] = module VII, SK-UT-1, TP-472 5 μM 48 h vs control
structure (smiles),measurement,setting,value
O=C1NC(=NCc2cccs2)S/C1=C\c1ccc2ncccc2c1 [RO3306],cell apoptosis and cell cycle in endometrial cancer cells,endometrial cancer cells,induced cell apoptosis and caused G2/M phase arrest
CC(=O)c1cc(-c2cc(C(=O)NC3CC3)ccc2C)c2ncccn12 [TP-472],mRNA levels of BAK,"SK-UT-1 cells [1]; RNA-seq, treated SK-UT-1 cells vs control, FIG. 7B",significantly increased
same,CDKN1A expression,"SK-UT-1 cells [1]; RNA-seq, treated uLMS cells vs control, FIG. 7A",significantly higher
same,expression of AKT1,"SK-UT-1 cells [1]; RNA-seq, treated uLMS cells, FIG. 7C",markedly decreased
same,expression of AKT2,"SK-UT-1 cells [1]; RNA-seq, treated uLMS cells, FIG. 7D",significantly decreased
same,expression of Gill,"SK-UT-1 cells [1]; RNA-seq, uLMS cells, FIG. 7E",significantly decreased
same,GLI2 expression,"SK-UT-1 cells [1]; RNA-seq, uLMS cells, FIG. 7F",markedly reduced
same,"differentially expressed genes (DEGs), down",SK-UT-1 cells [1]; [4],1741
same,"differentially expressed genes (DEGs), total",SK-UT-1 cells [1]; [4],3583
same,"differentially expressed genes (DEGs), up",SK-UT-1 cells [1]; [4],1842
same,FC of hub gene CEBPB,SK-UT-1 cells [1]; [5],1.75
same,FC of hub gene EGR1,SK-UT-1 cells [1]; [5],1.63
same,FC of hub gene FOS,SK-UT-1 cells [1]; [5],1.50
same,FC of hub gene GATA2,SK-UT-1 cells [1]; [5],2.26
same,FC of hub gene GRIN1,SK-UT-1 cells [1]; [5],2.54
same,FC of hub gene MYC,SK-UT-1 cells [1]; [5],1.56
same,FC of hub gene SHH,SK-UT-1 cells [1]; [5],4.66
same,FC of hub gene SOX9,SK-UT-1 cells [1]; [5],2.02
same,FC of hub gene STX1A,SK-UT-1 cells [1]; [5],1.78
same,FC of hub gene TERT,SK-UT-1 cells [1]; [5],1.68
same,FC of hub gene CCT2,SK-UT-1 cells [1]; [6],1.61
same,FC of hub gene CYCS,SK-UT-1 cells [1]; [6],1.86
same,FC of hub gene EIF2S1,SK-UT-1 cells [1]; [6],1.52
same,FC of hub gene HSPA8,SK-UT-1 cells [1]; [6],1.75
same,FC of hub gene IMP3,SK-UT-1 cells [1]; [6],1.62
same,FC of hub gene NIP7,SK-UT-1 cells [1]; [6],1.92
same,FC of hub gene NOP56,SK-UT-1 cells [1]; [6],1.64
same,FC of hub gene NOP58,SK-UT-1 cells [1]; [6],1.74
same,FC of hub gene PA2G4,SK-UT-1 cells [1]; [6],1.55
same,FC of hub gene RPL26L1,SK-UT-1 cells [1]; [6],1.58
same,FC of hub gene BYSL,SK-UT-1 cells [1]; [7],1.75
same,FC of hub gene CCND1,SK-UT-1 cells [1]; [7],2.21
same,FC of hub gene FN1,SK-UT-1 cells [1]; [7],2.40
same,FC of hub gene HRAS,SK-UT-1 cells [1]; [7],1.60
same,FC of hub gene JUN,SK-UT-1 cells [1]; [7],3.13
same,FC of hub gene KIT,SK-UT-1 cells [1]; [7],20.37
same,FC of hub gene LEF1,SK-UT-1 cells [1]; [7],6.22
same,FC of hub gene MRTO4,SK-UT-1 cells [1]; [7],2.16
same,FC of hub gene PDCD11,SK-UT-1 cells [1]; [7],1.69
same,FC of hub gene RRP9,SK-UT-1 cells [1]; [7],2.71
same,FC of hub gene CDK1,SK-UT-1 cells [1]; [8],−1.56
same,FC of hub gene CHEK2,SK-UT-1 cells [1]; [8],−1.69
same,FC of hub gene FGF2,SK-UT-1 cells [1]; [8],−1.56
same,FC of hub gene HLTF,SK-UT-1 cells [1]; [8],−1.78
same,FC of hub gene MIS18BP1,SK-UT-1 cells [1]; [8],−1.53
same,FC of hub gene STAG2,SK-UT-1 cells [1]; [8],−1.51
same,FC of hub gene TIA1,SK-UT-1 cells [1]; [8],−1.60
same,FC of hub gene TOP2A,SK-UT-1 cells [1]; [8],−1.52
same,FC of hub gene TOP2B,SK-UT-1 cells [1]; [8],−1.52
same,FC of hub gene WDHD1,SK-UT-1 cells [1]; [8],−1.52
same,effect on proliferation of SK-UT-1 cells,SK-UT-1 cells [2],dose-dependent inhibitory effect
same,protein levels of BCL-2,BCL-2,significantly decreased
same,tumor growth in melanoma,melanoma,blocked tumor growth
same,potency for BRD9,BRD9,high potency
same,effect on proliferation of MES-SA cells,MES-SA cells,dose-dependent inhibitory effect
same,expression of CDKN1A by q-PCR,SK-UT-1 cells [3]; FIG. 7G,significant increase
same,expression of BAK1 by q-PCR,SK-UT-1 cells [3]; FIG. 7H,significant increase
Cc1sc2c(c1C)C(c1ccc(Cl)cc1)=N[C@@H](CC(=O)OC(C)(C)C)c1nnc(C)n1-2 [JQ1],IL-6 and TNF levels,macrophages,reduce
same,tumor growth in ovarian cancer,ovarian cancer,suppresses tumor growth
CCCS(=O)(=O)c1nc(NC2CC2)cc(-c2ccc3c(ccn3C3CC(C)(C)NC(C)(C)C3)c2)n1 [NVS-CECR2-1],cytotoxic activity against human cancer cells,SW48 colon cancer cells,killing SW48 colon cancer cells by inducing apoptosis
same,chromatin binding of CECR2 BRD,CECR2 BRD,inhibits
